Results from patent US20090325964A1, “Piperazine Metabotropic Glutamate Receptor 5 (MGLUR5) Negative Allosteric Modulators For Anxiety/Depression” (Wyeth, priority 2008, published 2009).
Where two headings read alike, the source gives them in different places.

Target: T1, rat mGluR5 receptor (Rattus norvegicus, UniProt P31424)
T1 construct: expressed in transfected cells; host or cells: HEK-293
Assay: [3H]-MPEP displacement binding assay, HEK-293 cell membranes expressing rat mGluR5
Conditions: for Ki: read-out: Median Ki
Description: MGluR5 expressing HEK-293 cells were scraped off a plate, transferred to centrifuge tubes and washed twice by centrifugation (2000 rpm for 10 minutes, at 4° C.) in buffer (50 mM Tris pH 7.5). The resulting pellets were aliquoted and stored at minus 80° C. On the day of assay, the cells were thawed on ice and re-suspended in buffer. The binding assay was performed in a 96 well microtiter plate in a total volume of […]. Non-specific binding was determined in the presence of 10 μM MPEP. The binding reaction included a final radioligand [^3H]-MPEP concentration of 4 nM and 12-25 μg membrane protein per well. Following a 60 minute incubation at room temperature, the reaction was terminated by the addition of ice cold buffer and rapid filtration through a GF/B filter that had been presoaked for 30 minutes in 0.5% PEI. Compounds were initially tested in a single point assay to determine percent inhibition at 10 μM.
Percent inhibition and Ki values were generated by GraphPad Prism and Excel Fit. IC50 values were calculated using GraphPad by fitting to a 1 or 2 site-binding model.
where [L] is the concentration of free radioligand and Kd is the dissociation constant of radioligand for the receptor.

[1] = @ 10 μM compound, Biological Activity, Table 2A, read-out: PCT INHIB (%) @ 10 μM
[2] = [3H]-MPEP displacement, rat mGluR5 membranes
[3] = [3H]-MPEP displacement, rat mGluR5
[4] = 1 h, single point, @ 10 μm compound, Table 1A, read-out: PCT INHIB (%) @ 10 μm

T1 sequence (P31424 21-1203): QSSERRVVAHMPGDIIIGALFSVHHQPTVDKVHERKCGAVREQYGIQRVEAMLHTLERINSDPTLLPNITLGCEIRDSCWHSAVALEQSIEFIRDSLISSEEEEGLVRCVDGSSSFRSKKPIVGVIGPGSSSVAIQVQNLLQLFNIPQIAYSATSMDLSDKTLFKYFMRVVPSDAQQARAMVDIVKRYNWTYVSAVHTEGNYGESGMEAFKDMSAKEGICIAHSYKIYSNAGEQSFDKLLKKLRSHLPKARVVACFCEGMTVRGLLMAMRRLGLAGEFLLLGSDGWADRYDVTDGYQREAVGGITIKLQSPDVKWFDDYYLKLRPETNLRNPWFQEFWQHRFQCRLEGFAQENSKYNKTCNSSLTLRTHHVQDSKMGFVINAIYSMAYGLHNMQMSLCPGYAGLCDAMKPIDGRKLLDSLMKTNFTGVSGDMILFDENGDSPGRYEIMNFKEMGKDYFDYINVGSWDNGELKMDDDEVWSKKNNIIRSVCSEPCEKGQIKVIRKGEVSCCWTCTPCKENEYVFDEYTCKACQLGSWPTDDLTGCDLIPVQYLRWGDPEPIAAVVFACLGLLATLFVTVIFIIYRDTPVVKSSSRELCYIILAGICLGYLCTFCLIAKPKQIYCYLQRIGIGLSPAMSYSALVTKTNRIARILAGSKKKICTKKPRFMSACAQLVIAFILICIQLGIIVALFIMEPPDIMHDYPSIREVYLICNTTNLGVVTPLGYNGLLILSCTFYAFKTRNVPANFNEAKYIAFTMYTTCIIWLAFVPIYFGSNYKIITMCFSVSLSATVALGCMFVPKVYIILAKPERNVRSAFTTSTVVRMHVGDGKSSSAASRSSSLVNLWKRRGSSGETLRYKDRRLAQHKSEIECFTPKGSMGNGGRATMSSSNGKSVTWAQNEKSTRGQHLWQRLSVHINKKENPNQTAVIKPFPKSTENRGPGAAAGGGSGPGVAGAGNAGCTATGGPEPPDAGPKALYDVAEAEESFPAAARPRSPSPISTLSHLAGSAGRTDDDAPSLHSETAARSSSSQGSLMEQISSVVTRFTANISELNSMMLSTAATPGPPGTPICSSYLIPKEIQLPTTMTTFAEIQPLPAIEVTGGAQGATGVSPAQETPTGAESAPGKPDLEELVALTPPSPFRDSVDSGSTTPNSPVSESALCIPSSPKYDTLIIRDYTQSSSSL

Q: How did the inhibition at 10 µM [1] turn out when N#Cc1ccc(N2CCN(C(=O)c3cncc(C#Cc4ccccc4)c3)CC2)nc1 [Compound 131, 6-(4-{[5-(phenylethynyl)pyridin-3-yl]carbonyl}piperazin-1-yl)nicotinonitrile] was run?
A: 0%

Q: O=C(c1ccc(F)c(C#Cc2ccccc2)c1)N1CCN(c2ccccn2)CC1 [Compound 89, 1-[4-fluoro-3-(phenylethynyl)benzoyl]-4-pyridin-2-ylpiperazine] was tested. Which inhibition at 10 µM [1] did it give?
A: 51%

Q: What about the Ki (Biological Activity, Table 2A) of the same compound?
A: 0.05 µM

Q: What does the source list for N#Cc1cccnc1N1CCN(C(=O)c2cccc(C#Cc3ccccc3)c2)CC1 [Compound 141, 2-{4-[3-(phenylethynyl)benzoyl]piperazin-1-yl}nicotinonitrile]?
A: inhibition at 10 µM [1]: 78%; Ki (Biological Activity, Table 2A): 1.09 µM

Q: O=C(c1cccc(OCc2cccc(Cl)c2)c1)N1CCN(c2ccccn2)CC1 [Compound 154, 1-{3-[(3-chlorobenzyl)oxy]benzoyl}-4-pyridin-2-ylpiperazine] was tested. Which inhibition at 10 µM (single point, @ 10 μM compound, Table 3A, read-out: PCT INHIB (%) @ 10 μM) did it give?
A: 36%

Q: With O=C(c1ccc(C(F)(F)F)c(C#Cc2ccccn2)c1)N1CCN(c2nc3ccccc3s2)CC1 [Compound 377, 2-(4-{[3-(pyridin-2-ylethynyl)-4-(trifluoromethyl)phenyl]carbonyl}piperazin-1-yl)-1,3-benzothiazole] as the compound, how does the IC50 (bound printed in place of a Ki, read-out: IC50 (printed in the Median Ki column)) read?
A: > 10 µM

Q: For O=C(c1ccc(C(F)(F)F)c(C#Cc2ccccn2)c1)N1CCN(c2ncccn2)CC1 [Compound 370, 2-(4-{[3-(pyridin-2-ylethynyl)-4-(trifluoromethyl)phenyl]carbonyl}piperazin-1-yl)pyrimidine], which Ki [2] is on record?
A: 0.164 µM

Q: Cc1ccc(C(=O)N2CCN(c3cnccn3)CC2)cc1C#Cc1cccc(F)c1 [Compound 62, 2-(4-{3-[(3-fluorophenyl)ethynyl]-4-methylbenzoyl}piperazin-1-yl)pyrazine] was tested. Which Ki did it give?
A: 0.121 µM

Q: Which inhibition at 10 µM [1] does the source give for O=C(c1ccnc(C#Cc2ccccc2)c1)N1CCN(c2cccc(C(F)(F)F)n2)CC1 [Compound 126, 1-[2-(phenylethynyl)isonicotinoyl]-4-[6-(trifluoromethyl)pyridin-2-yl]piperazine] here?
A: 54%

Q: For COc1ccc(C(=O)N2CCN(c3ncccc3C#N)CC2)cc1C#Cc1ccccc1 [Compound 118, 2-{4-[4-methoxy-3-(phenylethynyl)benzoyl]piperazin-1-yl}nicotinonitrile], which inhibition at 10 µM [1] is on record?
A: 78%

Q: What about the Ki (Biological Activity, Table 2A) of the same compound?
A: 1.76 µM

Q: COc1ccc(C(=O)N2CCN(c3ncccn3)CC2)cc1C#Cc1cccc(OC(F)F)c1 [Compound 364, 2-[4-(3-{[3-(difluoromethoxy)phenyl]ethynyl}-4-methoxybenzoyl)piperazin-1-yl] pyrimidine] was tested. Which Ki [3] did it give?
A: 0.23 µM

Q: With O=C(c1cccc(C#Cc2ccccc2)c1)N1CCN(c2cccc(C(F)(F)F)c2)CC1 [Compound 85, 1-[3-(phenylethynyl)benzoyl]-4-[3-(trifluoromethyl)phenyl]piperazine] as the compound, how does the inhibition at 10 µM [1] read?
A: 32%

Q: Which Ki [3] does the source give for Cc1ccc(C(=O)N2CCN(c3ncccc3Cl)CC2)cc1C#Cc1ccccn1 [Compound 311, 1-(3-chloropyridin-2-yl)-4-[4-methyl-3-(pyridin-2-ylethynyl)benzoyl]piperazine] here?
A: 0.14 µM

Q: COc1ccc(C(=O)N2CCN(c3cnccn3)CC2)cc1C#CC1=CCCCC1 [Compound 50, 2-{4-[3-(cyclohex-1-en-1-ylethynyl)-4-methoxybenzoyl]piperazin-1-yl}pyrazine] was tested. Which inhibition at 10 µM [4] did it give?
A: 90%

Q: And the Ki?
A: 0.171 µM

Q: How did the inhibition at 10 µM [1] turn out when O=C(c1cccc(C#Cc2ccccc2)c1)N1CCN(c2cnccn2)CC1 [Compound 86, 2-{4-[3-(phenylethynyl)benzoyl]piperazin-1-yl}pyrazine] was run?
A: 85%

Q: With O=C(c1cccc(COc2ccccc2)c1)N1CCN(c2ccccn2)CC1 [Compound 171, 1-[3-(phenoxymethyl)benzoyl]-4-pyridin-2-ylpiperazine] as the compound, how does the Ki ([3H]-MPEP 4 nM, Table 4A) read?
A: > 10 µM

Q: For O=C(c1ccc(F)c(C#Cc2ccccn2)c1)N1CCN(c2ncc(Cl)cc2Cl)CC1 [Compound 314, 1-(3,5-dichloropyridin-2-yl)-4-[4-fluoro-3-(pyridin-2-ylethynyl)benzoyl]piperazine], which Ki [3] is on record?
A: 1.84 µM

Q: With COc1ccc(C(=O)N2CCN(c3ccc(F)cc3S(C)(=O)=O)CC2)cc1C#Cc1ccccn1 [Compound 240, 1-[4-fluoro-2-(methylsulfonyl)phenyl]-4-[4-methoxy-3-(pyridin-2-ylethynyl)benzoyl]piperazine] as the compound, how does the IC50 ([3H]-MPEP displacement, rat mGluR5, no Ki given, read-out: IC50 (printed in the Median Ki column instead of a Ki)) read?
A: > 10 µM

Q: How did the Ki [3] turn out when COc1ccc(C(=O)N2CCCN(c3ncc(C(F)(F)F)cc3Cl)CC2)cc1C#Cc1ccccn1 [Compound 212, 1-[3-chloro-5-(trifluoromethyl)pyridin-2-yl]-4-[4-methoxy-3-(pyridin-2-ylethynyl)benzoyl]-1,4-diazepane] was run?
A: 0.704 µM

Q: For COc1cccc(N2CCN(C(=O)c3cccc(C#Cc4ccccc4)c3)CC2)c1 [Compound 81, 1-(3-methoxyphenyl)-4-[3-(phenylethynyl)benzoyl]piperazine], which inhibition at 10 µM [1] is on record?
A: 78%

Q: And the Ki (Biological Activity, Table 2A)?
A: 3.39 µM

Q: With COc1ccc(C(=O)N2CCN(Cc3ccc(Cl)c(Cl)c3)CC2)cc1C#Cc1ccccn1 [Compound 288, 1-(3,4-dichlorobenzyl)-4-[4-methoxy-3-(pyridin-2-ylethynyl)benzoyl]piperazine] as the compound, how does the Ki [3] read?
A: 0.17 µM

Q: How did the Ki [3] turn out when COc1ccc(C(=O)N2CCN(c3cc(Cl)nc(C)n3)CC2)cc1C#Cc1ccccn1 [Compound 297, 4-chloro-6-{4-[4-methoxy-3-(pyridin-2-ylethynyl)benzoyl]piperazin-1-yl}-2-methylpyrimidine] was run?
A: 0.159 µM

Q: Which results are given for Cc1cccc(C#Cc2cc(C(=O)N3CCN(c4ccccn4)CC3)ccc2C)c1 [Compound 39, 1-{4-methyl-3-[(3-methylphenyl)ethynyl]benzoyl}-4-pyridin-2-ylpiperazine]?
A: inhibition at 10 µM [4]: 83%; Ki: 0.0571 µM

Q: COc1ccc(C(=O)N2CCN(c3cccc(C)n3)CC2)cc1C#Cc1ccccc1 [Compound 116, 1-[4-methoxy-3-(phenylethynyl)benzoyl]-4-(6-methylpyridin-2-yl]piperazine] was tested. Which inhibition at 10 µM [1] did it give?
A: 77%

Q: What about the Ki (Biological Activity, Table 2A) of the same compound?
A: 0.853 µM

Q: For Cc1cccc(C)c1N1CCN(C(=O)c2cccc(C#Cc3ccccc3)c2)CC1 [Compound 78, 1-(2,6-dimethylphenyl)-4-[3-(phenylethynyl)benzoyl]piperazine], which inhibition at 10 µM [1] is on record?
A: 53%

Q: And the Ki (Biological Activity, Table 2A)?
A: > 10 µM

Q: For O=C(c1cccc(C#Cc2ccccc2)c1)N1CCN(c2ccc(C(F)(F)F)cc2)CC1 [Compound 77, 1-[3-(phenylethynyl)benzoyl]-4-[4-(trifluoromethyl)phenyl]piperazine], which inhibition at 10 µM [1] is on record?
A: 0%

Q: Which inhibition at 10 µM [1] does the source give for Cc1cccc(N2CCN(C(=O)c3ccnc(C#Cc4ccccc4)c3)CC2)n1 [Compound 125, 1-(6-methylpyridin-2-yl)-4-[2-(phenylethynyl)isonicotinoyl]piperazine] here?
A: 30%

Q: Cc1ccc(C(=O)N2CCN(c3cnccn3)CC2)cc1C#CCc1ccccc1 [Compound 57, 2-{4-[4-methyl-3-(3-phenylprop-1-yn-1-yl)benzoyl]piperazin-1-yl}pyrazine] was tested. Which inhibition at 10 µM [4] did it give?
A: 87%

Q: And the Ki?
A: 0.363 µM

Q: With COc1ccc(C(=O)N2CCN(c3ncccn3)CC2)cc1C#Cc1ccc(Cl)cc1 [Compound 363, 2-(4-{3-[(4-chlorophenyl)ethynyl]-4-methoxybenzoyl}piperazin-1-yl)pyrimidine] as the compound, how does the Ki [3] read?
A: 0.891 µM

Q: Which Ki [2] does the source give for O=C(c1ccc(C(F)(F)F)c(C#Cc2ccccn2)c1)N1CCN(c2ncccc2Cl)CC1 [Compound 371, 1-(3-chloropyridin-2-yl)-4-{[3-(pyridin-2-ylethynyl)-4-(trifluoromethyl)phenyl]carbonyl}piperazine] here?
A: 1 µM

Q: Which results are given for COc1cccc(C#Cc2cc(C(=O)N3CCN(c4ccccn4)CC3)ccc2OC)c1 [Compound 17, 1-{4-methoxy-3-[(3-methoxyphenyl)ethynyl]benzoyl}-4-pyridin-2-ylpiperazine]?
A: inhibition at 10 µM [4]: 91%; Ki: 0.051 µM

Q: Which Ki [3] does the source give for COc1ccc(C(=O)N2CCN(c3ccccc3OC)CC2)cc1C#Cc1ccccn1 [Compound 230, 1-(2-methoxyphenyl)-4-[4-methoxy-3-(pyridin-2-ylethynyl)benzoyl]piperazine] here?
A: 0.734 µM

Q: For N#Cc1cccc(OCc2cccc(C(=O)N3CCN(c4ccccn4)CC3)c2)c1 [Compound 165, 3-({3-[(4-pyridin-2-ylpiperazin-1-yl)carbonyl]benzyl}oxy)benzonitrile], which Ki ([3H]-MPEP 4 nM, Table 4A) is on record?
A: 2.97 µM

Q: O=C(c1cccc(C#Cc2ccccc2)c1)N1CCN(c2ccc([N+](=O)[O-])cc2)CC1 [Compound 75, 1-(4-nitrophenyl)-4-[3-(phenylethynyl)benzoyl]piperazine] was tested. Which inhibition at 10 µM [1] did it give?
A: 20%

Q: What does the source list for Cc1cccc(N2CCN(C(=O)c3cccc(C#Cc4ccccc4)c3)CC2)n1 [Compound 110, 1-(6-methylpyridin-2-yl)-4-[3-(phenylethynyl)benzoyl]piperazine]?
A: inhibition at 10 µM [1]: 68%; Ki (Biological Activity, Table 2A): 3.41 µM

Q: How did the Ki [3] turn out when COc1ccc(C(=O)N2CCN(c3ncccn3)CC2)cc1C#Cc1cccc(OC(F)(F)F)c1 [Compound 356, 2-[4-(4-methoxy-3-{[3-(trifluoromethoxy)phenyl]ethynyl}benzoyl)piperazin-1-yl]pyrimidine] was run?
A: 0.29 µM
